Reference: PubChem BioAssay (NCI)
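Cells were grown in 96-well plates and exposed to each compound for 48 hours at five concentrations; endpoints were interpolated linearly between bracketing concentrations, or set to the highest concentration if not reached. GI50 is the concentration that inhibits growth by half. TGI: total growth inhibition.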

Experiments:
Test in all cases: NCI-60 cell line screen, 48 h
SNB-75 CNS = test system: SNB-75 CNS
M14 melanoma = test system: M14 melanoma
RXF 393 renal = test system: RXF 393 renal
SR leukemia = test system: SR leukemia
SN12C renal = test system: SN12C renal
TK-10 renal = test system: TK-10 renal
MDA-MB-231 breast = test system: MDA-MB-231 breast
MALME-3M melanoma = test system: MALME-3M melanoma
UO-31 renal = test system: UO-31 renal
DU-145 prostate = test system: DU-145 prostate
ACHN renal = test system: ACHN renal
OVCAR-4 ovarian = test system: OVCAR-4 ovarian
HOP-92 NSCLC = test system: HOP-92 NSCLC
SF-295 CNS = test system: SF-295 CNS
SK-MEL-28 melanoma = test system: SK-MEL-28 melanoma
HCT-116 colon = test system: HCT-116 colon
NCI-H226 lung = test system: NCI-H226 lung
MCF7 breast = test system: MCF7 breast
SNB-19 CNS = test system: SNB-19 CNS
SK-MEL-2 melanoma = test system: SK-MEL-2 melanoma
OVCAR-8 ovarian = test system: OVCAR-8 ovarian
SF-268 CNS = test system: SF-268 CNS
HL-60(TB) leukemia = test system: HL-60(TB) leukemia
RPMI-8226 leukemia = test system: RPMI-8226 leukemia
NCI-H23 lung = test system: NCI-H23 lung
OVCAR-5 ovarian = test system: OVCAR-5 ovarian
CCRF-CEM leukemia = test system: CCRF-CEM leukemia
PC-3 prostate = test system: PC-3 prostate
KM12 colon = test system: KM12 colon
K-562 leukemia = test system: K-562 leukemia
A549 NSCLC = test system: A549 NSCLC
U251 CNS = test system: U251 CNS
MDA-MB-435 = test system: MDA-MB-435
COLO 205 colon = test system: COLO 205 colon
T-47D breast = test system: T-47D breast
SW-620 colon = test system: SW-620 colon
SF-539 CNS = test system: SF-539 CNS
NCI-H522 lung = test system: NCI-H522 lung
IGROV1 ovarian = test system: IGROV1 ovarian
BT-549 breast = test system: BT-549 breast
SK-OV-3 ovarian = test system: SK-OV-3 ovarian
A498 renal = test system: A498 renal
HT29 colon = test system: HT29 colon
NCI/ADR-RES ovarian = test system: NCI/ADR-RES ovarian
MOLT-4 leukemia = test system: MOLT-4 leukemia
UACC-257 melanoma = test system: UACC-257 melanoma
OVCAR-3 ovarian = test system: OVCAR-3 ovarian
HCC-2998 colon = test system: HCC-2998 colon
LOX IMVI melanoma = test system: LOX IMVI melanoma
786-0 renal = test system: 786-0 renal
HS 578T breast = test system: HS 578T breast
NCI-H460 lung = test system: NCI-H460 lung
HOP-62 NSCLC = test system: HOP-62 NSCLC
EKVX NSCLC = test system: EKVX NSCLC
CAKI-1 renal = test system: CAKI-1 renal
SK-MEL-5 melanoma = test system: SK-MEL-5 melanoma
UACC-62 melanoma = test system: UACC-62 melanoma
HCT-15 colon = test system: HCT-15 colon

## COc1cccc(-c2cc(-c3ccc(Nc4nc(Nc5ccc(Cl)cc5)nc(Nc5ccc(Cl)cc5)n4)cc3)nc(N)c2C#N)c1
SNB-75 CNS
  GI50: 9.75 µM
  TGI: 24.6 µM
M14 melanoma
  GI50: 2.5 µM
  TGI: 7.12 µM
RXF 393 renal
  GI50: 1.44 µM
  TGI: 3.68 µM
SR leukemia
  GI50: 0.966 µM
  TGI: 4.22 µM
SN12C renal
  GI50: 4.01 µM
  TGI: > 100 µM
TK-10 renal
  GI50: 2.21 µM
  TGI: 4.05 µM
MDA-MB-231 breast
  GI50: 1.74 µM
  TGI: 5.43 µM
MALME-3M melanoma
  GI50: 1.69 µM
  TGI: 3.45 µM
UO-31 renal
  GI50: 1.52 µM
  TGI: 4.31 µM
DU-145 prostate
  GI50: 4.58 µM
  TGI: 26.1 µM
ACHN renal
  GI50: 1.98 µM
  TGI: 4.5 µM
OVCAR-4 ovarian
  GI50: 4.09 µM
  TGI: > 100 µM
HOP-92 NSCLC
  GI50: 1.1 µM
  TGI: 3.41 µM
SF-295 CNS
  GI50: 2.78 µM
  TGI: 10.2 µM
SK-MEL-28 melanoma
  GI50: 1.9 µM
  TGI: 3.98 µM
HCT-116 colon
  GI50: 1.6 µM
  TGI: 3.53 µM
NCI-H226 lung
  GI50: 2.16 µM
  TGI: 5.78 µM
MCF7 breast
  TGI: 5.84 µM
SNB-19 CNS
  GI50: 10.3 µM
  TGI: > 39.3 µM
SK-MEL-2 melanoma
  GI50: 1.74 µM
  TGI: 3.65 µM
OVCAR-8 ovarian
  GI50: 3.51 µM
  TGI: > 100 µM
SF-268 CNS
  GI50: 2.94 µM
  TGI: 10.2 µM
HL-60(TB) leukemia
  GI50: 0.838 µM
  TGI: 8.23 µM
RPMI-8226 leukemia
  GI50: 1.77 µM
  TGI: > 27.9 µM
NCI-H23 lung
  GI50: 3.59 µM
  TGI: > 54 µM
OVCAR-5 ovarian
  GI50: 3.3 µM
  TGI: 15.1 µM
CCRF-CEM leukemia
  GI50: 1.91 µM
  TGI: 11.5 µM
PC-3 prostate
  GI50: 2.01 µM
  TGI: 12 µM
KM12 colon
  GI50: 2.35 µM
  TGI: 11.1 µM
K-562 leukemia
  GI50: 1.52 µM
  TGI: 5.53 µM
A549 NSCLC
  GI50: 9.41 µM
  TGI: > 100 µM
U251 CNS
  GI50: 3.76 µM
  TGI: > 37.5 µM
MDA-MB-435
  GI50: 1.82 µM
  TGI: 4.24 µM
COLO 205 colon
  GI50: 1.63 µM
  TGI: 3.39 µM
T-47D breast
  GI50: 1.34 µM
  TGI: 3.67 µM
SW-620 colon
  GI50: 2.41 µM
  TGI: 5.64 µM
SF-539 CNS
  GI50: 1.69 µM
  TGI: 4.1 µM
NCI-H522 lung
  GI50: 1.75 µM
  TGI: 4.62 µM
IGROV1 ovarian
  GI50: 1.67 µM
  TGI: 4.62 µM
BT-549 breast
  GI50: 2.44 µM
  TGI: 10.9 µM
SK-OV-3 ovarian
  GI50: 24.9 µM
  TGI: > 63.9 µM
A498 renal
  GI50: 4.7 µM
  TGI: 29.4 µM
HT29 colon
  GI50: 3.96 µM
  TGI: 35.8 µM
NCI/ADR-RES ovarian
  GI50: 14.7 µM
  TGI: > 100 µM
MOLT-4 leukemia
  GI50: 1.63 µM
  TGI: 4.93 µM
UACC-257 melanoma
  GI50: 2.03 µM
  TGI: 4.8 µM
OVCAR-3 ovarian
  GI50: 1.73 µM
  TGI: 3.53 µM
HCC-2998 colon
  GI50: 2.11 µM
  TGI: 5.54 µM
LOX IMVI melanoma
  GI50: 2.22 µM
  TGI: 6.44 µM
786-0 renal
  GI50: 1.77 µM
  TGI: 3.43 µM
HS 578T breast
  GI50: 2.66 µM
  TGI: 11.2 µM
NCI-H460 lung
  GI50: 3.74 µM
  TGI: 24.4 µM
HOP-62 NSCLC
  GI50: 21.1 µM
  TGI: 44.6 µM
EKVX NSCLC
  GI50: 4.79 µM
  TGI: 16.3 µM
CAKI-1 renal
  GI50: 1.23 µM
  TGI: 5.09 µM
SK-MEL-5 melanoma
  GI50: 2.03 µM
  TGI: 6.35 µM
UACC-62 melanoma
  GI50: 14.6 µM
  TGI: 37.8 µM
HCT-15 colon
  GI50: 2.46 µM
  TGI: > 24.2 µM
